Experimental data from PubChem BioAssay (NCI).
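Grown in 96-well plates, cells were treated for 48 hours with each compound at five concentrations. Insufficient inhibition: endpoint recorded as highest concentration tested. Abbreviation: GI50, concentration required for 50% inhibition of growth. Definition used: TGI = concentration required for complete inhibition of growth.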

Tests used:
Assay in all cases: DTP human tumour cell line panel, 48 h
HOP-62 NSCLC = tested on: HOP-62 NSCLC
K-562 leukemia = tested on: K-562 leukemia
SK-MEL-2 melanoma = tested on: SK-MEL-2 melanoma
EKVX NSCLC = tested on: EKVX NSCLC
SN12C renal = tested on: SN12C renal
NCI/ADR-RES ovarian = tested on: NCI/ADR-RES ovarian
M14 melanoma = tested on: M14 melanoma
HL-60(TB) leukemia = tested on: HL-60(TB) leukemia
SR leukemia = tested on: SR leukemia
OVCAR-5 ovarian = tested on: OVCAR-5 ovarian
MOLT-4 leukemia = tested on: MOLT-4 leukemia
SNB-75 CNS = tested on: SNB-75 CNS
NCI-H460 lung = tested on: NCI-H460 lung
NCI-H522 lung = tested on: NCI-H522 lung
SNB-19 CNS = tested on: SNB-19 CNS
CAKI-1 renal = tested on: CAKI-1 renal
HCT-15 colon = tested on: HCT-15 colon
OVCAR-4 ovarian = tested on: OVCAR-4 ovarian
COLO 205 colon = tested on: COLO 205 colon
TK-10 renal = tested on: TK-10 renal
CCRF-CEM leukemia = tested on: CCRF-CEM leukemia
A498 renal = tested on: A498 renal
A549 NSCLC = tested on: A549 NSCLC
NCI-H23 lung = tested on: NCI-H23 lung
HS 578T breast = tested on: HS 578T breast
SK-MEL-28 melanoma = tested on: SK-MEL-28 melanoma
SW-620 colon = tested on: SW-620 colon
MDA-MB-231 breast = tested on: MDA-MB-231 breast
MDA-MB-435 = tested on: MDA-MB-435
IGROV1 ovarian = tested on: IGROV1 ovarian
OVCAR-8 ovarian = tested on: OVCAR-8 ovarian
HCT-116 colon = tested on: HCT-116 colon
SK-MEL-5 melanoma = tested on: SK-MEL-5 melanoma
UACC-62 melanoma = tested on: UACC-62 melanoma
DU-145 prostate = tested on: DU-145 prostate
KM12 colon = tested on: KM12 colon
HOP-92 NSCLC = tested on: HOP-92 NSCLC
HCC-2998 colon = tested on: HCC-2998 colon
HT29 colon = tested on: HT29 colon
786-0 renal = tested on: 786-0 renal
SF-268 CNS = tested on: SF-268 CNS
SK-OV-3 ovarian = tested on: SK-OV-3 ovarian
RPMI-8226 leukemia = tested on: RPMI-8226 leukemia
ACHN renal = tested on: ACHN renal
UACC-257 melanoma = tested on: UACC-257 melanoma
UO-31 renal = tested on: UO-31 renal
MALME-3M melanoma = tested on: MALME-3M melanoma
BT-549 breast = tested on: BT-549 breast
U251 CNS = tested on: U251 CNS
PC-3 prostate = tested on: PC-3 prostate
LOX IMVI melanoma = tested on: LOX IMVI melanoma
SF-539 CNS = tested on: SF-539 CNS
NCI-H226 lung = tested on: NCI-H226 lung
T-47D breast = tested on: T-47D breast
MCF7 breast = tested on: MCF7 breast
SF-295 CNS = tested on: SF-295 CNS

COC(=O)[C@H](Cc1ccccc1)NC(=O)c1csc([C@@H](C[C@H](C(C)C)N(C)C(=O)[C@@H](NC(=O)[C@H]2CCCN2C)C2CC2)OC(C)=O)n1
GI50 (HOP-62 NSCLC): 831 nM
TGI (HOP-62 NSCLC): > 33300 nM
GI50 (K-562 leukemia): 113 nM
TGI (K-562 leukemia): > 33300 nM
GI50 (SK-MEL-2 melanoma): 728 nM
TGI (SK-MEL-2 melanoma): > 33300 nM
GI50 (EKVX NSCLC): 1970 nM
TGI (EKVX NSCLC): > 33300 nM
GI50 (SN12C renal): 548 nM
TGI (SN12C renal): > 33300 nM
GI50 (NCI/ADR-RES ovarian): 8590 nM
TGI (NCI/ADR-RES ovarian): > 33300 nM
GI50 (M14 melanoma): 281 nM
TGI (M14 melanoma): > 33300 nM
GI50 (HL-60(TB) leukemia): 204 nM
TGI (HL-60(TB) leukemia): 1900 nM
GI50 (SR leukemia): 10.3 nM
TGI (SR leukemia): > 33300 nM
GI50 (OVCAR-5 ovarian): 1660 nM
TGI (OVCAR-5 ovarian): > 33300 nM
GI50 (MOLT-4 leukemia): 215 nM
TGI (MOLT-4 leukemia): > 33300 nM
GI50 (SNB-75 CNS): 131 nM
TGI (SNB-75 CNS): > 33300 nM
GI50 (NCI-H460 lung): 397 nM
TGI (NCI-H460 lung): > 33300 nM
GI50 (NCI-H522 lung): 78.3 nM
TGI (NCI-H522 lung): > 33300 nM
GI50 (SNB-19 CNS): 943 nM
TGI (SNB-19 CNS): > 33300 nM
GI50 (CAKI-1 renal): 793 nM
TGI (CAKI-1 renal): > 33300 nM
GI50 (HCT-15 colon): 855 nM
TGI (HCT-15 colon): > 33300 nM
GI50 (OVCAR-4 ovarian): 3980 nM
TGI (OVCAR-4 ovarian): > 33300 nM
GI50 (COLO 205 colon): 456 nM
TGI (COLO 205 colon): 4290 nM
GI50 (TK-10 renal): 4180 nM
TGI (TK-10 renal): > 33300 nM
GI50 (CCRF-CEM leukemia): 166 nM
TGI (CCRF-CEM leukemia): > 33300 nM
GI50 (A498 renal): 1530 nM
TGI (A498 renal): 15200 nM
GI50 (A549 NSCLC): 977 nM
TGI (A549 NSCLC): > 33300 nM
GI50 (NCI-H23 lung): 1460 nM
TGI (NCI-H23 lung): > 33300 nM
GI50 (HS 578T breast): 122 nM
TGI (HS 578T breast): > 33300 nM
GI50 (SK-MEL-28 melanoma): 2480 nM
TGI (SK-MEL-28 melanoma): > 33300 nM
GI50 (SW-620 colon): 235 nM
TGI (SW-620 colon): > 33300 nM
GI50 (MDA-MB-231 breast): 577 nM
TGI (MDA-MB-231 breast): > 12900 nM
GI50 (MDA-MB-435): 27 nM
TGI (MDA-MB-435): 191 nM
GI50 (IGROV1 ovarian): 327 nM
TGI (IGROV1 ovarian): > 33300 nM
GI50 (OVCAR-8 ovarian): 602 nM
TGI (OVCAR-8 ovarian): > 33300 nM
GI50 (HCT-116 colon): 138 nM
TGI (HCT-116 colon): 21400 nM
GI50 (SK-MEL-5 melanoma): 671 nM
TGI (SK-MEL-5 melanoma): 8990 nM
GI50 (UACC-62 melanoma): 1380 nM
TGI (UACC-62 melanoma): > 33300 nM
GI50 (DU-145 prostate): 346 nM
TGI (DU-145 prostate): > 33300 nM
GI50 (KM12 colon): 450 nM
TGI (KM12 colon): > 33300 nM
GI50 (HOP-92 NSCLC): 463 nM
TGI (HOP-92 NSCLC): > 9560 nM
GI50 (HCC-2998 colon): 1480 nM
TGI (HCC-2998 colon): > 33300 nM
GI50 (HT29 colon): 140 nM
TGI (HT29 colon): > 33300 nM
GI50 (786-0 renal): 746 nM
TGI (786-0 renal): > 33300 nM
GI50 (SF-268 CNS): 1050 nM
TGI (SF-268 CNS): > 33300 nM
GI50 (SK-OV-3 ovarian): 1040 nM
TGI (SK-OV-3 ovarian): > 33300 nM
GI50 (RPMI-8226 leukemia): 224 nM
TGI (RPMI-8226 leukemia): > 33300 nM
GI50 (ACHN renal): 1440 nM
TGI (ACHN renal): > 33300 nM
GI50 (UACC-257 melanoma): 16900 nM
TGI (UACC-257 melanoma): > 33300 nM
GI50 (UO-31 renal): 2170 nM
TGI (UO-31 renal): > 27900 nM
GI50 (MALME-3M melanoma): 5490 nM
TGI (MALME-3M melanoma): > 33300 nM
GI50 (BT-549 breast): 248 nM
TGI (BT-549 breast): 7850 nM
GI50 (U251 CNS): 521 nM
TGI (U251 CNS): > 33300 nM
GI50 (PC-3 prostate): 572 nM
TGI (PC-3 prostate): > 33300 nM
GI50 (LOX IMVI melanoma): 301 nM
TGI (LOX IMVI melanoma): > 33300 nM
GI50 (SF-539 CNS): 290 nM
TGI (SF-539 CNS): 1550 nM
GI50 (NCI-H226 lung): 3930 nM
TGI (NCI-H226 lung): > 33300 nM
GI50 (T-47D breast): > 7360 nM
TGI (T-47D breast): > 33300 nM
GI50 (MCF7 breast): 124 nM
TGI (MCF7 breast): > 33300 nM
GI50 (SF-295 CNS): 254 nM
TGI (SF-295 CNS): > 33300 nM
